Active and inactive are the calls of the source. The calls are words filed in the database; no cut-off is given here.
Legend:
Mus musculus [1] = assay: Anti-inflammatory activity in DSS-induced ulcerative colitis male C57BL/6 mouse model assessed as reduction in neutrophil elastase level in colon at 60 mg/kg administered via gavage for 10 days relative to control; format: functional; conditions: time 10.0 day
Mus musculus [2] = assay: Anti-inflammatory activity in DSS-induced ulcerative colitis male C57BL/6 mouse model assessed as reduction in proteinase 3 level in colon at 60 mg/kg administered via gavage for 10 days relative to control; format: functional; conditions: time 10.0 day
Mus musculus [3] = assay: Anti-inflammatory activity in DSS-induced ulcerative colitis male C57BL/6 mouse model assessed as reduction in Cathepsin C level in colon at 60 mg/kg administered via gavage for 10 days; format: functional; conditions: time 10.0 day
Mus musculus [4] = assay: Anti-inflammatory activity in DSS-induced ulcerative colitis male C57BL/6 mouse model assessed as reduction in neutrophil elastase level in serum at 60 mg/kg administered via gavage for 10 days relative to control; format: functional; conditions: time 10.0 day
Mus musculus [5] = assay: Anti-inflammatory activity in DSS-induced ulcerative colitis male C57BL/6 mouse model assessed as reduction in Cathepsin G level in serum at 60 mg/kg administered via gavage for 10 days relative to control; format: functional; conditions: time 10.0 day
Mus musculus [6] = assay: Anti-inflammatory activity in DSS-induced ulcerative colitis male C57BL/6 mouse model assessed as reduction in Cathepsin C level in serum at 60 mg/kg administered via gavage for 10 days relative to control; format: functional; conditions: time 10.0 day
Mus musculus [7] = assay: Anti-inflammatory activity in DSS-induced ulcerative colitis male C57BL/6 mouse model assessed as reduction in Cathepsin G level in colon at 60 mg/kg administered via gavage for 10 days relative to control; format: functional; conditions: time 10.0 day
[8] = target: T1, Neutrophil elastase (Homo sapiens) (UniProt P08246); assay: Inhibition of neutrophil elastase in human U-937 cells using N-MeSuc-Ala-Pro-Val-pNA as substrate at 10 uM incubated for 5 days by […] based microplate reader analysis relative to control; format: cell-based; conditions: time 5.0 day
T1 sequence (whole entry): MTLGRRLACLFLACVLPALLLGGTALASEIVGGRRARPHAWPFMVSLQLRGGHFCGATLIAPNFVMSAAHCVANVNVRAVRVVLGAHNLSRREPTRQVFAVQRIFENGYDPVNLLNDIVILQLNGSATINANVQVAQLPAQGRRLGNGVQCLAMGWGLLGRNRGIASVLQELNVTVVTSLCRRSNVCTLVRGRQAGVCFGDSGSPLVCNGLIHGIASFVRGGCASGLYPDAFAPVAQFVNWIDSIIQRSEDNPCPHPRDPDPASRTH

Mus musculus [9] = assay: Anti-inflammatory activity in DSS-induced ulcerative colitis C57BL/6 mouse model assessed as effect on Cathepsin C activity at 60 mg/kg, administered twice daily; format: functional, organism-based
RAW264.7 [10] = assay: Anti-inflammatory activity in mouse RAW264.7 cells assessed as inhibition of LPS-induced TNF-alpha production at 5 uM preincubated for 1 hr followed by LPS addition and measured after 24 hrs by ELISA relative to control; format: functional; parameters: scale not given: the % may be the effect or the level left
Dipeptidyl peptidase 1 [11] = target: T2, Dipeptidyl peptidase 1 (Homo sapiens, UniProt P53634); assay: Inhibition of Cathepsin C in human U-937 cells using H-Gly-Arg-AMC as substrate at 10 uM incubated for 5 days by fluorescence based microplate reader analysis relative to control; format: cell-based; conditions: time 5.0 day
T2 sequence (P53634 25-134 limits assumed): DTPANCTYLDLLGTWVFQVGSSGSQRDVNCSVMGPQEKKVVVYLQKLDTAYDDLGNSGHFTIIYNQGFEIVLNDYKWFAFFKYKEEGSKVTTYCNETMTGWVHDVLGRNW
T2 sequence (P53634 231-394 limits assumed): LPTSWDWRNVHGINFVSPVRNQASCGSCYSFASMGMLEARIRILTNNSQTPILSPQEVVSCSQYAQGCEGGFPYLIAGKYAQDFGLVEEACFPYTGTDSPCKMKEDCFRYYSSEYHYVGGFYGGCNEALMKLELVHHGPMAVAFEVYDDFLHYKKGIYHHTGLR
T2 sequence (P53634 395-463 limits assumed): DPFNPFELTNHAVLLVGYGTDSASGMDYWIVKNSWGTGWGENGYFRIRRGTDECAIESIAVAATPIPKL

[12] = target: T3, Cathepsin G (Homo sapiens) (UniProt P08311); assay: Inhibition of Cathepsin G in human U-937 cells using N-Suc-Ala-Ala-Pro-Phe-pNA as substrate at 10 uM incubated for 5 days by […] based microplate reader analysis relative to control; format: cell-based; conditions: time 5.0 day
T3 sequence (whole entry): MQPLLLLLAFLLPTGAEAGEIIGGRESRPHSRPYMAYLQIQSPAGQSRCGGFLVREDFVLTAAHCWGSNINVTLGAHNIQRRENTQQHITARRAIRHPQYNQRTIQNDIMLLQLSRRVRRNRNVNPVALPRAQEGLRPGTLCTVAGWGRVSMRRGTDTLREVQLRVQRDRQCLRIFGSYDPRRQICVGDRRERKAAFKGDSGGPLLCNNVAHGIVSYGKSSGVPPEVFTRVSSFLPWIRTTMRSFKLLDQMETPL

[13] = target: T4, Myeloblastin (Homo sapiens) (UniProt P24158); assay: Inhibition of proteinase 3 in human U-937 cells using aminobenzoyl-Val-Ala-Asp-Cys-Ala-Asp-Gln-ethylenediamine 2,4-dinitrophenyl as substrate at 10 uM incubated for 5 days by fluorescence based microplate reader analysis relative to control; format: cell-based; conditions: time 5.0 day
T4 sequence (whole entry): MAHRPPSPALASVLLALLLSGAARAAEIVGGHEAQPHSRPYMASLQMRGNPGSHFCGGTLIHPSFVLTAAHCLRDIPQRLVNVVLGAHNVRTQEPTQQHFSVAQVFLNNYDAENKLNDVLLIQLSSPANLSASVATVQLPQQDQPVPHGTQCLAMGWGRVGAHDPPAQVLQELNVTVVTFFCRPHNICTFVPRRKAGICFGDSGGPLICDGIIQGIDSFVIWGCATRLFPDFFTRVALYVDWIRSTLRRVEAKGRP

RAW264.7 [14] = assay: Anti-inflammatory activity in mouse RAW264.7 cells assessed as inhibition of LPS-induced IL-1beta production at 5 uM preincubated for 1 hr followed by LPS addition and measured after 24 hrs by ELISA relative to control; format: functional; parameters: scale not given: the % may be the effect or the level left
RAW264.7 [15] = assay: Anti-inflammatory activity in mouse RAW264.7 cells assessed as inhibition of LPS-induced NO production preincubated for 1 hr followed by LPS addition and measured after 24 hrs by Griess reagent based assay; format: functional, cell-based
Mus musculus [16] = assay: Anti-inflammatory activity in DSS-induced ulcerative colitis C57BL/6 mouse model assessed as effect on neutrophil serine proteases level at 60 mg/kg, administered twice daily; format: functional, organism-based
Dipeptidyl peptidase 1 [17] = target: T2, Dipeptidyl peptidase 1; assay: Inhibition of human recombinant Cathepsin C using Gly-Phe-AFC as substrate preincubated for 3 hrs followed by substrate addition and measured after 1 hr by fluorescence based multifunctional microplate reader analysis

IC50 (RAW264.7 [15]) [µM]	IC50 (Dipeptidyl peptidase 1 [17]) [µM]	Structure (SMILES)	Activity (RAW264.7 [10]; time 25 hrs) [%]	Activity (RAW264.7 [14]; time 25 hrs) [%]	Activity (RAW264.7 [10]; time 25.0 hrs)	Activity (RAW264.7 [14]; time 25.0 hrs)	also measured
–	–	Nc1ccc(O)c(C(=O)O)c1	–	–	–	–	Activity (Mus musculus [1]): Active; Activity (Mus musculus [2]): Active; Activity (Mus musculus [3]): Active; Activity (Mus musculus [4]): Active; Activity (Mus musculus [5]): Active; Activity (Mus musculus [6]): Active; Activity (Mus musculus [7]): Active
6.7	–	Cn1c(=O)oc2ccc(-c3ccc(C[C@@H](C#N)NC(=O)[C@@H]4CNCCCO4)cc3)cc21 [BRENSOCATIB]	65.1	70.9	–	–	inhibition [8]: 8.29%; Activity (Mus musculus [9]): Active; inhibition (Dipeptidyl peptidase 1 [11]): 10.1%; inhibition [12]: 12.1%; inhibition [13]: 16.7%; Activity (Mus musculus [16]): Active
> 50	> 1	N#Cc1ccc(-c2cccc3c2NC(=O)/C3=C\c2ccnc3ccccc23)cc1	–	–	inactive	inactive	–
> 50	> 1	Cc1ccc(NC(=O)c2cccc(-c3ccc(CN4CCOCC4)cc3)c2)cc1	–	–	inactive	inactive	–
9.4	0.24	O=C(Nc1ccnc2ccccc12)c1cccc(-c2ccc(CN3CCOCC3)cc2)c1	70.6	75.7	–	–	–
3.2	0.161	CN1CCN(Cc2ccc(-c3cccc4c3NC(=O)/C4=C\c3ccnc4ccccc34)cc2)CC1	70.4	80.4	–	–	–
